Assay results taken from patent US20060069132A1, “Azolecarboxamide herbicides” (priority 2004, published 2006).

How the values were obtained:
[1] = test system: goosegrass; assay: Test C pre-/postemergence herbicide test; type: in vivo, Eleusine indica; settings: for Plant response rating, Goosegrass / Plant response rating (0 = no effect, 100 = complete control), Goosegrass: preemergence
Method in brief: (§1)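 Visual injury scores run from 0 (no effect) to 100 (complete control), assessed relative to untreated controls 12 to 14 days after treatment in the greenhouse. Chemicals were formulated in a non-phytotoxic solvent mixture with surfactant and applied to soil after planting or to emerged plants at the 1- to 4-leaf stage.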

[2] = test system: lambsquarters; assay: Test C pre-/postemergence herbicide test; type: in vivo, Chenopodium album; settings: for Plant response rating, Lambsquarters / Plant response rating (0 = no effect, 100 = complete control), Lambsquarters: preemergence
Method in brief: as §1

[3] = test system: large crabgrass; assay: Test C pre-/postemergence herbicide test; type: in vivo, Digitaria sanguinalis; settings: for Plant response rating, Crabgrass, Large / Plant response rating (0 = no effect, 100 = complete control), Crabgrass, Large: preemergence
Method in brief: as §1

[4] = test system: kochia; assay: Test C pre-/postemergence herbicide test; type: in vivo, Kochia scoparia; settings: for Plant response rating, Kochia / Plant response rating (0 = no effect, 100 = complete control), Kochia: preemergence
Method in brief: as §1

[5] = test system: pigweed; assay: Test B pre-/postemergence herbicide test; type: in vivo, Amaranthus retroflexus
Method in brief: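 Greenhouse pot assay with simultaneous preemergence (treated seed) and postemergence (2–18 cm seedlings) applications of surfactant-containing, non-phytotoxic solvent formulations. Response scored visually 13–15 days later on a 0–100 scale, 100 meaning complete control.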

[6] = test system: wild oat; assay: Test B postemergence herbicide test; type: in vivo, Avena fatua
Method in brief: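 Each value is a visual 0–100 response rating taken against controls 13 to 15 days after treatment in the greenhouse. Plants received formulated chemical postemergence at the 1- to 4-leaf stage or, in flooded paddy, at the 2-leaf stage.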

[7] = test system: pigweed; assay: Test C pre-/postemergence herbicide test; type: in vivo, Amaranthus retroflexus; settings: for Plant response rating, Pigweed / Plant response rating (0 = no effect, 100 = complete control), Pigweed: preemergence
Method in brief: as §1

[8] = test system: common ragweed; assay: Test C pre-/postemergence herbicide test; type: in vivo, Ambrosia elatior; set-up: key to Plant response rating, Ragweed: 0 = no effect, 100 = complete control; settings: for Plant response rating, Ragweed / Plant response rating (0 = no effect, 100 = complete control), Ragweed: preemergence
Method in brief: as §1

[9] = 500 g ai/ha, scale 0 to 100 (0 no effect, 100 complete control), visual, 12 to 14 days
[10] = 125 g ai/ha, 0 is no effect, 100 is complete control, preemergence
[11] = 125 g ai/ha, visual rating, scale 0 (no effect) to 100 (complete control), postemergence
[12] = 500 g ai/ha, visual rating, 0 = no effect, 100 = complete control, preemergence
[13] = postemergence, 500 g ai/ha, scale 0 to 100, 0 is no effect, 100 is complete control
[14] = 125 g ai/ha; visual rating, scale 0 (no effect) to 100 (complete control); postemergence
[15] = postemergence, 500 g ai/ha; scale 0 to 100, 0 is no effect, 100 is complete control
[16] = 125 g ai/ha, scale 0 (no effect) to 100 (complete control), visual, 12 to 14 days
[17] = 250 g ai/ha, scale 0 to 100 (0 no effect, 100 complete control), visual, 12 to 14 days
[18] = Preemergence, 500 g ai/ha, scale 0 to 100, 0 no effect, 100 complete control

Q: Which results are given for `CCC1=NN(C(C)(C)C)CC1C(=O)Nc1cc(C(=O)N2CCCC2)ccc1F` (racemic) [Compound 341]?
A: Plant response rating, Goosegrass ([1]; 62 g ai/ha, scale 0 to 100): 70; Plant response rating (0 = no effect, 100 = complete control), Goosegrass ([1]; 125 g ai/ha): 85; Plant response rating, Goosegrass ([1]; 250 g ai/ha, scale 0-100): 85; Plant response rating, Goosegrass [1, 9]: 90; Plant response rating, Lambsquarters ([2]; 62 g ai/ha, scale 0 to 100): 100; Plant response rating (0 = no effect, 100 = complete control), Lambsquarters ([2]; 125 g ai/ha): 100; Plant response rating, Lambsquarters ([2]; 250 g ai/ha, scale 0-100): 100; Plant response rating, Lambsquarters [2, 9]: 100; Plant response rating, Crabgrass, Large ([3]; 62 g ai/ha, scale 0 to 100): 50; Plant response rating (0 = no effect, 100 = complete control), Crabgrass, Large ([3]; 125 g ai/ha): 80; Plant response rating, Crabgrass, Large ([3]; 250 g ai/ha, scale 0-100): 90; Plant response rating, Crabgrass, Large [3, 9]: 100; Plant response rating, Kochia ([4]; 62 g ai/ha, scale 0 to 100): 80; Plant response rating (0 = no effect, 100 = complete control), Kochia ([4]; 125 g ai/ha): 100; Plant response rating, Kochia ([4]; 250 g ai/ha, scale 0-100): 100; Plant response rating, Kochia [4, 9]: 100; Plant response rating (0 to 100 scale), Pigweed [5, 10]: 90; Pigweed plant response rating [5, 11]: 30; Plant response rating, Pigweed [5, 12]: 100; Pigweed plant response rating [5, 13]: 60; Oat, Wild plant response rating [6, 14]: 0; Oat, Wild plant response rating [6, 15]: 30; Plant response rating, Pigweed ([7]; 62 g ai/ha, scale 0 to 100): 95; Plant response rating (0 = no effect, 100 = complete control), Pigweed ([7]; 125 g ai/ha): 95; Plant response rating, Pigweed ([7]; 250 g ai/ha, scale 0-100): 100; Plant response rating, Pigweed [7, 9]: 100; Plant response rating, Ragweed ([8]; 62 g ai/ha, scale 0 to 100): 50; Plant response rating (0 = no effect, 100 = complete control), Ragweed ([8]; 125 g ai/ha): 100; Plant response rating, Ragweed ([8]; 250 g ai/ha, scale 0-100): 100; Plant response rating, Ragweed [8, 9]: 100

Q: How did the “Plant response rating, Goosegrass” value ([1]; 62 g ai/ha, scale 0 to 100) turn out when `CCC1=NN(C(C)(C)C)CC1C(=O)Nc1cc(C(=O)N(C)CC)ccc1F` (racemic) [Compound 342] was run?
A: 60

Q: What about the “Plant response rating (0 = no effect, 100 = complete control), Goosegrass” value ([1]; 125 g ai/ha) of the same compound?
A: 65

Q: And the “Plant response rating, Goosegrass” value ([1]; 250 g ai/ha, scale 0-100)?
A: 65

Q: What about the “Plant response rating, Goosegrass” value [1, 9] of the same compound?
A: 90

Q: And the “Plant response rating, Lambsquarters” value ([2]; 62 g ai/ha, scale 0 to 100)?
A: 70

Q: And the “Plant response rating (0 = no effect, 100 = complete control), Lambsquarters” value ([2]; 125 g ai/ha)?
A: 90

Q: And the “Plant response rating, Lambsquarters” value ([2]; 250 g ai/ha, scale 0-100)?
A: 100

Q: And the “Plant response rating, Lambsquarters” value [2, 9]?
A: 100

Q: What about the “Plant response rating, Crabgrass, Large” value ([3]; 62 g ai/ha, scale 0 to 100) of the same compound?
A: 60

Q: And the “Plant response rating (0 = no effect, 100 = complete control), Crabgrass, Large” value ([3]; 125 g ai/ha)?
A: 60

Q: What about the “Plant response rating, Crabgrass, Large” value ([3]; 250 g ai/ha, scale 0-100) of the same compound?
A: 70

Q: And the “Plant response rating, Crabgrass, Large” value [3, 9]?
A: 85

Q: What about the “Plant response rating, Kochia” value ([4]; 62 g ai/ha, scale 0 to 100) of the same compound?
A: 50

Q: And the “Plant response rating (0 = no effect, 100 = complete control), Kochia” value ([4]; 125 g ai/ha)?
A: 100

Q: What about the “Plant response rating, Kochia” value ([4]; 250 g ai/ha, scale 0-100) of the same compound?
A: 100

Q: And the “Plant response rating, Kochia” value [4, 9]?
A: 100

Q: What about the “Plant response rating (0 to 100 scale), Pigweed” value [5, 10] of the same compound?
A: 80

Q: What about the “Pigweed plant response rating” value [5, 11] of the same compound?
A: 40

Q: What about the “Plant response rating, Pigweed” value [5, 12] of the same compound?
A: 100

Q: What about the “Pigweed plant response rating” value [5, 13] of the same compound?
A: 80

Q: What about the “Oat, Wild plant response rating” value [6, 14] of the same compound?
A: 20

Q: What about the “Oat, Wild plant response rating” value [6, 15] of the same compound?
A: 30

Q: What about the “Plant response rating, Pigweed” value ([7]; 62 g ai/ha, scale 0 to 100) of the same compound?
A: 80

Q: What about the “Plant response rating (0 = no effect, 100 = complete control), Pigweed” value ([7]; 125 g ai/ha) of the same compound?
A: 90

Q: And the “Plant response rating, Pigweed” value ([7]; 250 g ai/ha, scale 0-100)?
A: 100

Q: And the “Plant response rating, Pigweed” value [7, 9]?
A: 100

Q: What about the “Plant response rating, Ragweed” value ([8]; 62 g ai/ha, scale 0 to 100) of the same compound?
A: 55

Q: And the “Plant response rating (0 = no effect, 100 = complete control), Ragweed” value ([8]; 125 g ai/ha)?
A: 95

Q: And the “Plant response rating, Ragweed” value ([8]; 250 g ai/ha, scale 0-100)?
A: 100

Q: And the “Plant response rating, Ragweed” value [8, 9]?
A: 100

Q: For `CCCn1nc(C(C)(C)C)cc1C(=O)Nc1cccc(C(=O)NCC)c1` [Compound 57], which “Plant response rating (0 = no effect, 100 = complete control), Goosegrass” value ([1]; 62 g ai/ha) is on record?
A: 45

Q: What about the “Plant response rating, Goosegrass” value [1, 16] of the same compound?
A: 75

Q: What about the “Plant response rating, Goosegrass” value [1, 17] of the same compound?
A: 90

Q: And the “Goosegrass plant response rating” value [1, 18]?
A: 90

Q: And the “Plant response rating (0 = no effect, 100 = complete control), Lambsquarters” value ([2]; 62 g ai/ha)?
A: 100

Q: And the “Plant response rating, Lambsquarters” value [2, 16]?
A: 100

Q: What about the “Plant response rating, Lambsquarters” value [2, 17] of the same compound?
A: 100

Q: What about the “Lambsquarters plant response rating” value [2, 18] of the same compound?
A: 100

Q: What about the “Plant response rating (0 = no effect, 100 = complete control), Crabgrass, Large” value ([3]; 62 g ai/ha) of the same compound?
A: 95

Q: What about the “Plant response rating, Crabgrass, Large” value [3, 16] of the same compound?
A: 100

Q: And the “Plant response rating, Crabgrass, Large” value [3, 17]?
A: 100

Q: And the “Crabgrass, Large plant response rating” value [3, 18]?
A: 100

Q: What about the “Plant response rating (0 = no effect, 100 = complete control), Kochia” value ([4]; 62 g ai/ha) of the same compound?
A: 100

Q: What about the “Plant response rating, Kochia” value [4, 16] of the same compound?
A: 100

Q: And the “Plant response rating, Kochia” value [4, 17]?
A: 100

Q: And the “Kochia plant response rating” value [4, 18]?
A: 100

Q: And the “Plant response rating, Pigweed” value ([5]; Postemergence, 500 g ai/ha, visual rating after 13 to 15 days, scale 0 (no effect) to 100 (complete control))?
A: 80

Q: And the “Pigweed plant response rating” value ([5]; Preemergence, 500 g ai/ha, scale 0 to 100)?
A: 100

Q: What about the “Pigweed plant response rating” value ([5]; postemergence, 125 g ai/ha, visual rating, scale 0 (no effect) to 100 (complete control)) of the same compound?
A: 70

Q: And the “Plant response rating, Pigweed” value ([5]; preemergence, 125 g ai/ha, 0 to 100 scale, 0 is no effect, 100 is complete control)?
A: 90

Q: What about the “Plant response rating, Oat, Wild” value ([6]; Postemergence, 500 g ai/ha; visual rating after 13 to 15 days, scale 0 (no effect) to 100 (complete control)) of the same compound?
A: 30

Q: What about the “Oat, Wild plant response rating” value ([6]; postemergence, 125 g ai/ha; visual rating, scale 0 (no effect) to 100 (complete control)) of the same compound?
A: 30

Q: And the “Plant response rating (0 = no effect, 100 = complete control), Pigweed” value ([7]; 62 g ai/ha)?
A: 100

Q: What about the “Plant response rating, Pigweed” value [7, 16] of the same compound?
A: 100

Q: What about the “Plant response rating, Pigweed” value [7, 17] of the same compound?
A: 100

Q: What about the “Pigweed plant response rating” value [7, 18] of the same compound?
A: 100

Q: What about the “Plant response rating (0 = no effect, 100 = complete control), Ragweed” value ([8]; 62 g ai/ha) of the same compound?
A: 65

Q: And the “Plant response rating, Ragweed” value [8, 16]?
A: 100

Q: And the “Plant response rating, Ragweed” value [8, 17]?
A: 100

Q: What about the “Ragweed plant response rating” value [8, 18] of the same compound?
A: 100
